Measurements from patent publication US20240307550A1, “MODULATION OF CD46 CELL SURFACE MARKER IN BOTH ANDROGEN RECEPTOR-POSITIVE AND NEGATIVE CANCER CELLS” (The Regents of the University of California, priority 2021, published 2024).
Blank lines part the entries; values can stand above or below the molecule they belong to.

How the values were obtained:
[1] = test system: CD46 cell surface expression, 22Rv1 cells; test: CD46 cell surface expression by flow cytometry using YS5, 22Rv1 cells; type: cell-based
Experimental: (§1) AR positive 22Rv1 cells were exposed to enzalutamide (5 μM) and CD46 cell surface expression was measured by flow cytometry using YS5. As a reference, prostate specific membrane antigen (PSMA) was also measured at the same time. […] MFI: median fluorescence intensity. See right portion of FIG. 1.
(§2) Methods: 22Rv1 and Du145 cells were exposed to varying concentrations of the Stat3 inhibitor C188-9 and the glucocorticoid receptor inhibitor mifepristone for 7-10 days at 37° C. in culture media, and cell surface CD46 expression is detected by flow cytometry using the anti-CD46 antibody YS5 followed by AlexaFluo-617 labeled anti-human Fc secondary antibody. MFI (median fluorescence intensity) was recorded and analyzed by Student t-test (for two group comparison) and One-way ANOVA (for group number >2).

[2] = test system: CD46 cell surface expression, Du145 cells; test: CD46 cell surface expression by flow cytometry, Du145 cells; type: cell-based; conditions: 7 days; for CD46 cell surface expression (MFI): Du145 cells, 37° C.
Experimental: as §2

[3] = test system: CD46 cell surface antigen density, H660 cells; test: CD46 cell surface antigen density by quantitative flow cytometry, H660 cells; type: cell-based; conditions: AR-negative neuroendocrine H660 cells, 10 μM abiraterone
Experimental: The neuroendocrine prostate cancer cell line H660, which is AR-negative, was exposed to an ASI (in this case, 10 μM abiraterone), and CD46 cell surface antigen density was measured by quantitative flow cytometry. Over 2-fold increase of CD46 antigen density was found following ASI treatment.

[4] = test system: CD46 cell surface expression, VCaP cells; test: CD46 cell surface expression by flow cytometry using YS5, VCaP cells; type: cell-based; conditions: AR positive VCaP cells, enzalutamide 5 μM, versus control cells
Experimental: AR positive VCaP cells were exposed to enzalutamide (5 μM) and CD46 cell surface expression was measured by flow cytometry using the YS5 antibody. MFI: median fluorescence intensity.

[5] = test system: prostate specific membrane antigen (PSMA), 22Rv1 cells; test: PSMA measured as reference by flow cytometry, 22Rv1 cells; type: cell-based; conditions: AR positive 22Rv1 cells, enzalutamide 5 μM
Experimental: as §1

[6] = test system: CD46 antigen density, LNCaP-C4-2B cells; test: CD46 antigen density by quantitative flow cytometry, LNCaP-C4-2B cells; type: cell-based; conditions: 10 μM, 7 days
Text: CD46 antigen density was *p<0.05; **p<0.01 (p=0.0091), Student's test, duplicates.

LNCaP-C4-2B xenografts = type: in vivo; conditions: mice with subcu LNCaP-C4-2B xenografts; 50 mg/kg daily for 4 weeks from day 10; single iv 3 mg/kg CD46 ADC on Day-14; 69 days
Experimental: An in vivo tumor implantation mouse model was studied to measure the effect of pre-treatment with enzalutamide followed by andi-CD46 ADC treatment. LNCaP-C4-2B cells were implanted in mice subcu on Day-0. Starting on day 10, the mice were administered with 50 mg/kg, daily, for 4 weeks. […] FIG. 7 depicts the survival rate of the mice.

[7] = target: T1, CD46 on the surface of prostate cancer cells (human, UniProt P15529 35-392); test: cell-based or functional assay
T1 sequence (looked up): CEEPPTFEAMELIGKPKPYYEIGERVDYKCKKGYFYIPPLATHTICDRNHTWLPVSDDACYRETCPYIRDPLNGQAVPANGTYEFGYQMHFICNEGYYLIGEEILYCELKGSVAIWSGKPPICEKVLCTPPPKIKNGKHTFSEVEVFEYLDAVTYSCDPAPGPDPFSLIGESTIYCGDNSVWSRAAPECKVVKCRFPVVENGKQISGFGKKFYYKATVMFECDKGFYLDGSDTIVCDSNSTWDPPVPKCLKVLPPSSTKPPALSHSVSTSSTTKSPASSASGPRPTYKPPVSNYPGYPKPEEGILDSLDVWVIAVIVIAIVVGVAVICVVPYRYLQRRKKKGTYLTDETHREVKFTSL

[8] = target: T1, CD46 on the surface of prostate cancer …; test: flow cytometry on VCaP and 22Rv1 cells (figure legend)
Experimental: AR positive VCaP cells were exposed to enzalutamide (5 μM) and CD46 cell surface expression was measured by flow cytometry using the YS5 antibody. MFI: median fluorescence intensity. […] AR positive 22Rv1 cells were exposed to enzalutamide (5 μM) and CD46 cell surface expression was measured by flow cytometry using YS5. As a reference, prostate specific membrane antigen (PSMA) was also measured at the same time. Enzalutamide-induced upregulation was unique to CD46 but not PSMA. MFI: median fluorescence intensity. See right portion of FIG. 1.
AR positive 22Rv1 cells were exposed to enzalutamide (5 μM) and CD46 cell surface expression was measured by flow cytometry using YS5. As a reference, prostate specific membrane antigen (PSMA) was also measured at the same time. Enzalutamide-induced upregulation was unique to CD46 but not PSMA. MFI: median fluorescence intensity. See right portion of FIG. 1.

Molecule: COc1ccc(S(=O)(=O)Nc2cc(-c3c(O)ccc4ccccc34)c(O)c3ccccc23)cc1 [C188-9, N-(1′, 2-Dihydroxy-1,2′-binaphthalen-4′-yl)-4-methoxybenzenesulfonamide]
CD46 cell surface expression (MFI) ([1]; 22Rv1 cells, C188-9 low/mid concentrations (2.5 and 5 μM), 37° C., 10 days): stimulates CD46 cell surface presentation | CD46 cell surface presentation (MFI) ([1]; prostate cancer cells (22Rv1, 10 μM, 10 days, single experiment, FIG. 12; Du145, FIG. 13), C188-9 high concentrations (>10 μM)): inhibits | CD46 cell surface expression (MFI) ([2]; C188-9 10, 20 and 50 μM): inhibits CD46 cell surface presentation

Molecule: C[C@]12CC[C@H](O)CC1=CC[C@@H]1[C@@H]2CC[C@]2(C)C(c3cccnc3)=CC[C@@H]12 [abiraterone]
increase of CD46 antigen density [3]: Over 2 fold

Molecule: CNC(=O)c1ccc(N2C(=S)N(c3ccc(C#N)c(C(F)(F)F)c3)C(=O)C2(C)C)cc1F [enzalutamide]
CD46 cell surface expression (MFI) [4]: significantly more CD46 expression than control cells | CD46 cell surface expression (MFI) ([1]; AR positive 22Rv1 cells, enzalutamide 5 μM): upregulation was unique to CD46 | PSMA expression (MFI) [5]: not PSMA | CD46 antigen density [6]: increased | CD46 cell surface expression ([2]; AR-null Du145 cells, enzalutamide 5 μM, p<0.0001, n=4): increase significantly | tumor response / overall survival (Kaplan-Meier) (LNCaP-C4-2B xenografts): resistant to enz treatment alone

Molecule: CC#C[C@]1(O)CC[C@H]2[C@@H]3CCC4=CC(=O)CCC4=C3[C@@H](c3ccc(N(C)C)cc3)C[C@@]21C [mifepristone]
CD46 cell surface expression (MFI) ([1]; 22Rv1 cells, mifepristone 2.5 μM, 37° C., 10 days, Student t test): not significant | CD46 cell surface expression (MFI) ([2]; mifepristone high concentrations (20 and 50 PM)): inhibits CD46 cell surface presentation

B1: CD46 ADC (YS5-MC-vc-PAB-MMAF) (antibody, human IgG1, lambda, V domains shown)
VH: QVQLVQSGGGVVQPGRSLRLACAASGLTVNNYAMHWVRQAPGKGLEWVAVISYDGNNKYYADSVKGRFTISRDNSKNTLYLQMNSLRAEDTAVYYCAKGGGYFDLWGRGTLVTVSS
VL: QSVLTQPPSVSGAPGQRVTISCTGSSSNIGAGYDVHWYQQLPGTAPKLLIYGNNNRPSGVPDRFSGSKSGTSASLAITGLQAEDEADYYCSSYTSGTWLFGGGTKLTVLG
modifications: MC-vc-PAB-MMAF drug-linker conjugated; sites and drug to antibody ratio not stated for this conjugate
EC50 of cell killing, LNCaP-C4-2B cells pre-exposed to abiraterone against cells not pre-exposed [7]: 17 fold

binding result [8]: binds
B2: YS5 anti-CD46 antibody (antibody, human IgG1, lambda, V domains shown)
VH: QVQLVQSGGGVVQPGRSLRLACAASGLTVNNYAMHWVRQAPGKGLEWVAVISYDGNNKYYADSVKGRFTISRDNSKNTLYLQMNSLRAEDTAVYYCAKGGGYFDLWGRGTLVTVSS
VL: QSVLTQPPSVSGAPGQRVTISCTGSSSNIGAGYDVHWYQQLPGTAPKLLIYGNNNRPSGVPDRFSGSKSGTSASLAITGLQAEDEADYYCSSYTSGTWLFGGGTKLTVLG
notes: also called YS5FL; anti-CD46 antibody YS5
